From patent US4594345A, “Methylflavone-8-carboxylates” (Nippon Shinyaku Co. Ltd., priority 1982, dated 1986) come the findings set out here.

The structures appear in SMILES notation.

Assay [1] relates to passive cutaneous anaphylaxis (PCA). The experiment in a line: Passive cutaneous anaphylaxis assay (PCA) in rats. Format: in vivo, rat (Wister strain). Conditions: oral 10 mg/kg, one hour before antigen; for inhibition in vivo at 10 mg/kg: Rattus norvegicus, po, 1 h, read-out: PCA Inhibition Ratio %. The protocol: (§1) The effect of the compounds (I) of the present invention in the treatment of asthma and allergic diseases were evaluated by a passive cutaneous anaphylaxis assay (PCA) in rats and by measuring anti-SRS-A action using ileus of guinea pigs.
(i) Antiserum abundant in homocytotropic antibody is prepared by the same method as Tada and Okumura did (cf. Journal of Immunology, volume 106, page 1002, […]). Thus, one mg (calculated as an amount of protein) of DNP-As (2,4-dinitrophenyl-coupled ascaris extract) prepared by methods of Strejan and Campbell (Journal of Immunology, volume 98, page 893, 1971) and of Eisen (Journal of American Chemical Society, volume 85, page 4593, 1953) and […] pertussis vaccine are administered to each paw of Wister strain rats (180 to 200 grams body weights) by dividing the dose by four. Five days later, 0.5 mg of DNP-As is adminstered into muscle of back. Eight days later from the initial immunization, blood is taken from descending aorta under anesthetizing with ether, the resulting serum is stored at -80° C. and is melted before use.
(ii) Effect of tested compounds is investigated as follows:
Anti-serum obtained by the method (i) is diluted with physiological saline solution double by double successively and 0.05 ml of each diluted solution is administered into back of Wister strain rats (140 to 160 grams body weight) subcutaneously. After 72 hours, a solution of 2 mg (calculated as protein) of DNP-As and 2.5 mg of Evand Blue dissolved in 1 ml of physiological saline solution is administered intravenously at a dose of 5 ml/kg. After thirty minutes from antigen solution administration, the animals are killed and diameters of blue spots appeared at the place where antiserum is administered are measured. The PCA test is conducted by the same method as already described using a diluted solutions of antiserum which always show 10 mm or more of spot diameters and the effect of the test compounds is judged. Thus, antiserum diluted solutions are administered to two places in back. Test compounds are administered orally at the dose of 10 mg/kg one hour before administration of antigen solution. From the skin of reacted parts of killed animals, leaked or emitted dyestuff is extracted [cf. Baeck and Steinetz: J. Pharmacol. Exp. Ther., Vol. 131, page 400 (1961)] and the amount of the dyestuff is measured. The inhibition ratio is calculated by the following expression: [formula] in which R' is an amount of dyestuff in the group treated with the test compounds and A is that in the control group.

A further assay deals with SRS-A. Put plainly: Anti-SRS-A action (SRS-A induced shrinkage of guinea pig ileus). Set-up: species or system guinea pig (Hartley strain male). The settings on record: treated five minutes before SRS-A (20 units), 5 min; for SRS-A Inhibition Ratio % 10^-6 M: 1 µM; for SRS-A Inhibition Ratio % 10^-7 M: 0.1 µM. The protocol:
as §1
Anti-SRS-A action (An anti-action against slow reacting substance of anaphylaxie)
Hartley strain male guinea pigs (300 to 350 grams body weight) are killed and 1.0 to 1.5 cm of ileus is immediately excised from ileocecal parts and is suspended in 10 ml of Tyrode solution (95% O2 -5% CO2 saturation) containing 10^-7 g/ml of atropine and 10^-6 g/ml of pyrilamine. SRS-A (20 units) (the amount of SRS-A showing the same shrinkage as 5 ng of histamine is defined as one unit) prepared by using sensitized guinea pig lung is given to cause shrinkage there. Then antagonistic action of test compounds treated five minutes ago against the shrinkage is measured and recorded via isotonic transducer. [formula] in which A' is a height of shrinkage of SRS-A + test compound and A is that of SRS-A.

As to `Cc1c(-c2ccc(C(C)C)cc2)oc2c(C(=O)N3CCCCC3)cccc2c1=O` [Example 54, 4'-isopropyl-3-methylflavone-8-carboxylic acid N,N-pentamethylene amide], the inhibition in vivo at 10 mg/kg in assay [1] stood at 13%. In the assay with SRS-A, the “SRS-A Inhibition Ratio % 10^-6 M” value is 69.0% and the “SRS-A Inhibition Ratio % 10^-7 M” value is 38.6%.

On to `Cc1c(-c2cc(Cl)ccc2Cl)oc2c(C(=O)O)cccc2c1=O` [Example 76, 2',5'-dichloro-3-methylflavone-8-carboxylic acid], for which the inhibition in vivo at 10 mg/kg in assay [1] was 13.2%. Besides, in the assay on SRS-A, the “SRS-A Inhibition Ratio % 10^-6 M” value is 65.2% and the “SRS-A Inhibition Ratio % 10^-7 M” value came to 40.0%.

In the case of `CCOC(=O)c1cccc2c(=O)c(C)c(-c3ccccc3CC)oc12` [Example 37, ethyl 2'-ethyl-3-methylflavone-8-carboxylate], the inhibition in vivo at 10 mg/kg in assay [1] amounted to 20.5%. In the assay on SRS-A, the “SRS-A Inhibition Ratio % 10^-6 M” value is given as 100% and the “SRS-A Inhibition Ratio % 10^-7 M” value was found to be 25.0%.

For `CCc1ccccc1-c1oc2c(C(=O)N(CC)CC)cccc2c(=O)c1C` [Example 38, 2'-ethyl-3-methylflavone-8-carboxylic acid N,N-diethylamide], the inhibition in vivo at 10 mg/kg in assay [1] turned out to be 16%. Also, in the assay with SRS-A, the “SRS-A Inhibition Ratio % 10^-6 M” value is reported as 100% and the “SRS-A Inhibition Ratio % 10^-7 M” value was found to be 29.6%.

For the compound `CCN(CC)C(=O)c1cccc2c(=O)c(C)c(-c3ccc(C(C)(C)C)cc3)oc12` [Example 57, 4'-tertiary butyl-3-methylflavone-8-carboxylic acid N,N-diethylamide], in assay [1], the inhibition in vivo at 10 mg/kg was determined as 19.1%. In addition, in the assay with SRS-A, the “SRS-A Inhibition Ratio % 10^-6 M” value was determined as 39.1% and the “SRS-A Inhibition Ratio % 10^-7 M” value came out at 10.4%.

Consider `CCNC(=O)c1cccc2c(=O)c(C)c(-c3ccc(Cl)cc3)oc12` [Example 73, 4'-chloro-3-methylflavone-8-carboxylic acid N-ethylamide], for which the inhibition in vivo at 10 mg/kg in assay [1] was 19.4%. Further, in the assay on SRS-A, the “SRS-A Inhibition Ratio % 10^-6 M” value is on record as 29.4% and the “SRS-A Inhibition Ratio % 10^-7 M” value turned out to be 6.2%.

With `CCNC(=O)c1cccc2c(=O)c(C)c(-c3ccc(OC)cc3)oc12` [Example 15, 4'-methoxy-3-methylflavoen-8-carboxylic acid N-ethylamide], the inhibition in vivo at 10 mg/kg in assay [1] stood at 19%. Further, in the assay on SRS-A, the “SRS-A Inhibition Ratio % 10^-6 M” value is 41.9% and the “SRS-A Inhibition Ratio % 10^-7 M” value was found to be 30.3%.

As to `CCOC(=O)c1cccc2c(=O)c(C)c(-c3ccc(C)cc3C)oc12` [Example 40, ethyl 2',3,4'-trimethylflavone-8-carboxylate], the inhibition in vivo at 10 mg/kg in assay [1] was 17.3%. Besides, in the assay with SRS-A, the “SRS-A Inhibition Ratio % 10^-6 M” value turned out to be 73.9% and the “SRS-A Inhibition Ratio % 10^-7 M” value is given as 8.1%.

For `CCOC(=O)c1cccc2c(=O)c(C)c(-c3ccc(CC)cc3)oc12` [Example 45, ethyl 4'-ethyl-3-methylflavone-8-carboxylate], the inhibition in vivo at 10 mg/kg in assay [1] is 19%. Moreover, in the assay with SRS-A, the “SRS-A Inhibition Ratio % 10^-6 M” value is reported as 52.2% and the “SRS-A Inhibition Ratio % 10^-7 M” value was 16.0%.

Consider `CCN(CC)C(=O)c1cccc2c(=O)c(C)c(-c3ccc(Cl)cc3)oc12` [Example 72, 4'-chloro-3-methylflavone-8-carboxylic acid N,N-diethylamide], for which the inhibition in vivo at 10 mg/kg in assay [1] amounted to 16.3%. In the assay with SRS-A, the “SRS-A Inhibition Ratio % 10^-6 M” value came out at 42.1% and the “SRS-A Inhibition Ratio % 10^-7 M” value is 7.5%.

`CCOC(=O)c1cccc2c(=O)c(C)c(-c3ccccc3OCC)oc12` [Example 17, ethyl 2'-ethoxy-3-methylflavone-8-carboxylate]: in assay [1], the inhibition in vivo at 10 mg/kg came out at 21.1%. In addition, in the assay on SRS-A, the “SRS-A Inhibition Ratio % 10^-6 M” value stood at 72.5% and the “SRS-A Inhibition Ratio % 10^-7 M” value is 50.0%.

For `CCOC(=O)c1cccc2c(=O)c(C)c(-c3ccc(OC)c(OC)c3OC)oc12` [Example 31, ethyl 2',3',4'-trimethoxy-3-methylflaveone-8-carboxylate], the “PCA Inhibition Ratio %” value in assay [1] is reported as 20.2%. In addition, in the assay with SRS-A, the “SRS-A Inhibition Ratio % 10^-6 M” value turned out to be 63.0% and the “SRS-A Inhibition Ratio % 10^-7 M” value is given as 20.4%.

As for `CCCCCc1ccc(-c2oc3c(C(=O)O)cccc3c(=O)c2C)cc1` [Example 61], the “PCA Inhibition Ratio %” value in assay [1] (10 mg/kg) is 22.7%. In addition, in the assay on SRS-A, the “SRS-A Inhibition Ratio % 10^-6 M” value was 40.7% and the “SRS-A Inhibition Ratio % 10^-7 M” value amounted to 9.4%.

Take `COc1cccc(-c2oc3c(C(=O)O)cccc3c(=O)c2C)c1OC` [Example 23, 2',3'-dimethoxy-3-methylflavone-8-carboxylic acid]: in assay [1], the inhibition in vivo at 10 mg/kg was 19.5%. In addition, in the assay with SRS-A, the “SRS-A Inhibition Ratio % 10^-6 M” value came out at 24.0% and the “SRS-A Inhibition Ratio % 10^-7 M” value worked out at 6.2%.

For `CCCCCCNC(=O)c1cccc2c(=O)c(C)c(-c3ccc(C(C)C)cc3)oc12` [Example 52, 4'-isopropyl-3-methylflavone-8-carboxylic acid N-n-hexylamide], the inhibition in vivo at 10 mg/kg in assay [1] worked out at 13.5%. In the assay with SRS-A, the “SRS-A Inhibition Ratio % 10^-6 M” value amounted to 66.1% and the “SRS-A Inhibition Ratio % 10^-7 M” value was determined as 20.7%.

Regarding `CCCCN(CC)C(=O)c1cccc2c(=O)c(C)c(-c3ccc(C)cc3C)oc12` [Example 43, 2',3,4'-trimethylflavone-8-carboxylic acid N-n-butyl-N-ethylamide], the inhibition in vivo at 10 mg/kg in assay [1] was found to be 18.8%. Besides, in the assay with SRS-A, the “SRS-A Inhibition Ratio % 10^-6 M” value came out at 68.1% and the “SRS-A Inhibition Ratio % 10^-7 M” value worked out at 23.4%.

Turning to `Cc1c(-c2ccc(C(C)C)cc2)oc2c(C(=O)NC3CCCCC3)cccc2c1=O` [Example 53, 4'-isopropyl-3-methylflavone-8-carboxylic acid N-cyclohexylamide], in assay [1], the inhibition in vivo at 10 mg/kg was 10.3%. In addition, in the assay with SRS-A, the “SRS-A Inhibition Ratio % 10^-6 M” value turned out to be 51.9% and the “SRS-A Inhibition Ratio % 10^-7 M” value is recorded as 40.0%.

On to `Cc1c(-c2ccc(C(C)C)cc2)oc2c(C(=O)O)cccc2c1=O` [Example 7, 4'-Isopropyl-3-methylflavone-8-carboxylic acid], for which the inhibition in vivo at 10 mg/kg in assay [1] came to 19.7%. In addition, in the assay with SRS-A, the “SRS-A Inhibition Ratio % 10^-6 M” value amounted to 40.8% and the “SRS-A Inhibition Ratio % 10^-7 M” value was determined as 19.0%.

Regarding `CCCCCc1ccc(-c2oc3c(C(=O)N(CC)CC)cccc3c(=O)c2C)cc1` [Example 60, 3-methyl-4'-n-pentylflavone-8-carboxylic acid N,N-diethylamide], in assay [1], the inhibition in vivo at 10 mg/kg came out at 13.4%. Also, in the assay on SRS-A, the “SRS-A Inhibition Ratio % 10^-6 M” value was found to be 100% and the “SRS-A Inhibition Ratio % 10^-7 M” value turned out to be 44.9%.

On to `CCOC(=O)c1cccc2c(=O)c(C)c(-c3ccccc3C)oc12` [Example 34, 2',3-dimethylflavone-8-carboxylic acid ethyl ester], for which the inhibition in vivo at 10 mg/kg in assay [1] was determined as 19.5%. Moreover, in the assay with SRS-A, the “SRS-A Inhibition Ratio % 10^-6 M” value worked out at 71.4% and the “SRS-A Inhibition Ratio % 10^-7 M” value amounted to 47.6%.

`CCN(CC)C(=O)c1cccc2c(=O)c(C)c(-c3ccc(Cl)cc3Cl)oc12` [Example 81, 2',4'-dichloro-3-methylflavone-8-carboxylic acid N,N-diethylamide]: the inhibition in vivo at 10 mg/kg in assay [1] is 20.4%. Moreover, in the assay on SRS-A, the “SRS-A Inhibition Ratio % 10^-6 M” value amounted to 57.1% and the “SRS-A Inhibition Ratio % 10^-7 M” value is listed as 9.8%.

Regarding `CCN(CC)C(=O)c1cccc2c(=O)c(C)c(-c3ccccc3Cl)oc12` [Example 68], the inhibition in vivo at 10 mg/kg in assay [1] was 21.1%. In addition, in the assay on SRS-A, the “SRS-A Inhibition Ratio % 10^-6 M” value is listed as 55.3% and the “SRS-A Inhibition Ratio % 10^-7 M” value was determined as 9.8%.
